Target: myoglobin (carbonmonoxy myoglobin, MbCO) (Equus caballus, UniProt P68082)
Assay: 1H NMR titration
Format: binding

myoglobin (carbonmonoxy myoglobin, MbCO), sequence (P68082 2-154): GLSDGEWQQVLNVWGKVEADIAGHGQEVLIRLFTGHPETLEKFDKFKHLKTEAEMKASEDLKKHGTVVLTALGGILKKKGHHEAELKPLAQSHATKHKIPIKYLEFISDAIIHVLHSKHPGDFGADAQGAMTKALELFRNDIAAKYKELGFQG

CCCCCCCCCCCCCCCC(=O)O [PA, palmitate]
Kd: 39 to 48 µM

Source: publication PMC3934850 (Biochimica et biophysica acta, 2014)
